From patent publication US20060069132A1, “Azolecarboxamide herbicides” (priority 2004, published 2006)

Experiments:
corn = assay: Test C pre-/postemergence herbicide test; assay type: in vivo, Zea mays; conditions: preemergence; for Plant response rating (0 = no effect, 100 = complete control), Corn: 125 g ai/ha
Outline: (§1)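 Seeds were planted and sprayed preemergence with test chemicals in a non-phytotoxic solvent mixture containing surfactant; postemergence treatments went onto plants 2 to 18 cm tall (1- to 4-leaf stage). After 12 to 14 days in a greenhouse, injury was rated visually against untreated controls on a 0–100 scale.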

common ragweed = assay: Test C pre-/postemergence herbicide test; assay type: in vivo, Ambrosia elatior; design: key to Plant response rating, Ragweed: 0 = no effect, 100 = complete control; conditions: preemergence; for Plant response rating (0 = no effect, 100 = complete control), Ragweed: 125 g ai/ha
Outline: as §1

johnsongrass = assay: Test C pre-/postemergence herbicide test; assay type: in vivo, Sorghum halepense; conditions: preemergence; for Plant response rating (0 = no effect, 100 = complete control), Johnsongrass: 125 g ai/ha
Outline: as §1

goosegrass = assay: Test C pre-/postemergence herbicide test; assay type: in vivo, Eleusine indica; conditions: preemergence; for Plant response rating (0 = no effect, 100 = complete control), Goosegrass: 125 g ai/ha
Outline: as §1

Surinam grass = assay: Test C pre-/postemergence herbicide test; assay type: in vivo, Urochloa decumbens; conditions: preemergence; for Plant response rating (0 = no effect, 100 = complete control), Surinam Grass: 125 g ai/ha
Outline: as §1

velvetleaf = assay: Test C pre-/postemergence herbicide test; assay type: in vivo, Abutilon theophrasti; conditions: preemergence; for Plant response rating (0 = no effect, 100 = complete control), Velvetleaf: 125 g ai/ha
Outline: as §1

ducksalad = assay: Test C flooded paddy test; assay type: in vivo, Heteranthera limosa; conditions: for Plant response rating, Ducksalad: 500 g ai/ha, visual rating after 12 to 14 days
barnyardgrass = assay: Test C flooded paddy test; assay type: in vivo, Echinochloa crus-galli; conditions: for Plant response rating, Barnyardgrass: 500 g ai/ha, visual rating after 12 to 14 days
Outline: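 Postemergence sprays applied to plants 2 to 18 cm tall (1- to 4-leaf stage); paddy species grown to 2-leaf stage under flooding. After 12 to 14 days in greenhouse, visual rating versus untreated controls on 0–100 scale (0 no effect, 100 complete control).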

morningglory = assay: Test C pre-/postemergence herbicide test; assay type: in vivo, Ipomoea coccinea; design: key to Plant response rating, Morningglory: 0 = no effect, 100 = complete control; conditions: preemergence; for Plant response rating (0 = no effect, 100 = complete control), Morningglory: 125 g ai/ha
Outline: as §1

bermudagrass = assay: Test C pre-/postemergence herbicide test; assay type: in vivo, Cynodon dactylon; conditions: preemergence; for Plant response rating (0 = no effect, 100 = complete control), Bermudagrass: 125 g ai/ha
Outline: as §1

[1] = 500 g ai/ha, scale 0 to 100 (0 no effect, 100 complete control), visual, 12 to 14 days
[2] = 125 g ai/ha, scale 0 to 100 (0 no effect, 100 complete control)
[3] = 250 g ai/ha, scale of 0 to 100, 0 is no effect, 100 is complete control
[4] = scale 0 to 100 (0 no effect, 100 complete control)
[5] = 62 g ai/ha, scale 0 to 100 (0 no effect, 100 complete control)
[6] = 62 g ai/ha, scale 0 to 100, 0 no effect, 100 complete control

Compound | Plant response rating, Corn (corn; 62 g ai/ha, scale 0 to 100) | Plant response rating (0 = no effect, 100 = complete control), Corn (corn) | Plant response rating, Corn (corn; 250 g ai/ha, scale 0-100) | Plant response rating, Corn (corn; [1]) | Plant response rating, Ragweed (common ragweed; 62 g ai/ha, scale 0 to 100) | Plant response rating (0 = no effect, 100 = complete control), Ragweed (common ragweed) | Plant response rating, Ragweed (common ragweed; [1]) | Plant response rating, Johnsongrass (johnsongrass; 62 g ai/ha, scale 0 to 100) | Plant response rating (0 = no effect, 100 = complete control), Johnsongrass (johnsongrass) | Plant response rating, Johnsongrass (johnsongrass; 250 g ai/ha, scale 0-100) | Plant response rating, Johnsongrass (johnsongrass; [1]) | Plant response rating, Goosegrass (goosegrass; 62 g ai/ha, scale 0 to 100) | Plant response rating (0 = no effect, 100 = complete control), Goosegrass (goosegrass) | Plant response rating, Goosegrass (goosegrass; 250 g ai/ha, scale 0-100) | Plant response rating, Goosegrass (goosegrass; [1]) | Plant response rating, Surinam Grass (Surinam grass; 62 g ai/ha, scale 0 to 100) | Plant response rating (0 = no effect, 100 = complete control), Surinam Grass (Surinam grass) | Plant response rating, Surinam Grass (Surinam grass; [1]) | Plant response rating, Velvetleaf (velvetleaf; 62 g ai/ha, scale 0 to 100) | Plant response rating (0 = no effect, 100 = complete control), Velvetleaf (velvetleaf) | also measured
CCNC(=O)c1cccc(NC(=O)c2nn(C(C)(C)CC)nc2CC)c1 [Compound 376] | 20 | 40 | 45 | 50 | 0 | 0 | 50 | 60 | 80 | 100 | 100 | 80 | 100 | 100 | 100 | 40 | 60 | 100 | 0 | 5 | Plant response rating, Ragweed (common ragweed; 250 g ai/ha, scale 0-100): 50; Plant response rating, Surinam Grass (Surinam grass; 250 g ai/ha, scale 0-100): 90; Plant response rating, Velvetleaf (velvetleaf; [1]): 50; Ducksalad plant response rating (ducksalad; 62 g ai/ha, scale 0 to 100): 25; Ducksalad plant response rating (ducksalad; [2]): 85; Ducksalad plant response rating (ducksalad; [3]): 85; Plant response rating, Ducksalad (ducksalad; [4]): 85; Barnyardgrass plant response rating (barnyardgrass; [5]): 45; Barnyardgrass plant response rating (barnyardgrass; [2]): 65; Barnyardgrass plant response rating (barnyardgrass; [3]): 70; Plant response rating, Barnyardgrass (barnyardgrass; [4]): 75; Plant response rating, Morningglory (morningglory; 62 g ai/ha, scale 0 to 100): 0; Plant response rating (0 = no effect, 100 = complete control), Morningglory (morningglory): 0; Plant response rating, Morningglory (morningglory; 250 g ai/ha, scale 0-100): 5; Plant response rating, Morningglory (morningglory; [1]): 5; Plant response rating, Bermudagrass (bermudagrass; [6]): 80; Plant response rating (0 = no effect, 100 = complete control), Bermudagrass (bermudagrass): 90; Plant response rating, Bermudagrass (bermudagrass; 250 g ai/ha, scale 0-100): 100; Plant response rating, Bermudagrass (bermudagrass; [1]): 100
Cc1nn(C(C)(C)C)nc1C(=O)Nc1cccc(C(=O)N(C)C)c1 [Compound 391] | 80 | 80 | 85 | 85 | 85 | 100 | 100 | 100 | 100 | 100 | 100 | 80 | 85 | 90 | 95 | 85 | 95 | 95 | 100 | 100 | Plant response rating, Ragweed (common ragweed; 250 g ai/ha, scale 0-100): 100; Plant response rating, Surinam Grass (Surinam grass; 250 g ai/ha, scale 0-100): 95; Plant response rating, Velvetleaf (velvetleaf; 250 g ai/ha, scale 0-100): 100; Plant response rating, Velvetleaf (velvetleaf; [1]): 100; Ducksalad plant response rating (ducksalad; 62 g ai/ha, scale 0 to 100): 85; Ducksalad plant response rating (ducksalad; [2]): 85; Ducksalad plant response rating (ducksalad; [3]): 85; Plant response rating, Ducksalad (ducksalad; [4]): 95; Barnyardgrass plant response rating (barnyardgrass; [5]): 55; Barnyardgrass plant response rating (barnyardgrass; [2]): 85; Barnyardgrass plant response rating (barnyardgrass; [3]): 90; Plant response rating, Barnyardgrass (barnyardgrass; [4]): 95; Plant response rating, Morningglory (morningglory; 62 g ai/ha, scale 0 to 100): 100; Plant response rating (0 = no effect, 100 = complete control), Morningglory (morningglory): 100; Plant response rating, Morningglory (morningglory; 250 g ai/ha, scale 0-100): 100; Plant response rating, Morningglory (morningglory; [1]): 100; Plant response rating, Bermudagrass (bermudagrass; [6]): 95; Plant response rating (0 = no effect, 100 = complete control), Bermudagrass (bermudagrass): 95; Plant response rating, Bermudagrass (bermudagrass; 250 g ai/ha, scale 0-100): 95; Plant response rating, Bermudagrass (bermudagrass; [1]): 95
CCNC(=O)c1ccc(F)c(N(C(C)=O)C(=O)c2cc(C(C)(C)C)nn2CC)c1 [Compound 399] | 60 | 70 | 80 | 95 | 95 | 100 | 100 | 95 | 100 | 100 | 100 | 95 | 100 | 100 | 100 | 95 | 95 | 100 | 95 | 100 | Plant response rating, Velvetleaf (velvetleaf; [1]): 100; Ducksalad plant response rating (ducksalad; 62 g ai/ha, scale 0 to 100): 75; Ducksalad plant response rating (ducksalad; [2]): 75; Ducksalad plant response rating (ducksalad; [3]): 85; Plant response rating, Ducksalad (ducksalad; [4]): 85; Barnyardgrass plant response rating (barnyardgrass; [5]): 50; Barnyardgrass plant response rating (barnyardgrass; [2]): 65; Barnyardgrass plant response rating (barnyardgrass; [3]): 85; Plant response rating, Barnyardgrass (barnyardgrass; [4]): 90; Plant response rating, Morningglory (morningglory; 62 g ai/ha, scale 0 to 100): 15; Plant response rating (0 = no effect, 100 = complete control), Morningglory (morningglory): 25; Plant response rating, Morningglory (morningglory; [1]): 75; Plant response rating, Bermudagrass (bermudagrass; [6]): 100; Plant response rating (0 = no effect, 100 = complete control), Bermudagrass (bermudagrass): 100; Plant response rating, Bermudagrass (bermudagrass; 250 g ai/ha, scale 0-100): 100; Plant response rating, Bermudagrass (bermudagrass; [1]): 100
